Entries after “also recorded” stand apart in the source; their conditions may differ.
What was measured:
[1] = tested on: human retinal (ARPE-19) cells; assay: MTT cell viability assay in ARPE-19; type: cell-based; details: 5, 10, 25, 50, 75 or 90 μM, 96 hours
Procedure: A 3-(4,5-dimethylthiozol-2-yl)-2,5-diphenyltetrazolium bromide (MTT) dye reduction assay was carried out to determine the cytotoxicity of each compound on either human microvascular endothelial cells (HMECs) or human retinal pigmented epithelium cells (ARPE-19). Cells were maintained in a 95% air and 5% CO2 atmosphere at 37° C. in Dulbecco modified Eagle medium (DMEM, Sigma Aldrich) with 10% fetal bovine serum, 2 mM Gibco® L-glutamine and 100 units/ml penicillin, 1 mg/ml streptomycin (Invitrogen) supplementation. On day 1, cells were trypsinized (Trypsin-EDTA 1×) and seeded 1.4×10^4 cells per well of a 96 well plate and incubated overnight. On day 2, cells were serum staved in DMEM with L-glutamine and penicillin-streptomycin supplementation for 24 h. On day 3, cells were drug treated for 24 h (HMECs) or 96 h (ARPE-19 cells) with 0.1% DMSO or 10 μM to 90 μM of each compound 4, 8, 15, 18 or 20, with 4 replicate wells of each compound. After 24-96 h, cells were incubated with […] 5 mg/ml MTT labelling Reagent (Roche) for 2 h. Subsequently, when purple formazan crystals formed cells were incubated with 1× solubilisation solution (Roche) for 4 h and absorbance read at 570 nm using a microplate reader.

Ang-2 = assay: Multiplex ELISA of HMEC media: Ang-2; type: cell-based, human; details: compound-treated HMECs, 16 hours
Procedure: (§1) Dermal-derived Human Microvascular Endothelial Cells (HMEC) were maintained at 37° C./5% CO2 in MCDB-131 medium (Gibco/cat: 10372) supplemented with 10% FCS, L-Glutamine (Gibco/cat: 25030-032), 1 μl/ml Hydrocortisone (Sigma/cat: H0396), 10 ng/ml EGF (BD Biosciences 354001) and 1% Pen-Strep (Gibco/cat: 151040-148). The wells of a μ-slide angiogenesis plate (IBIDI Cat no: 81506) were coated with a layer of matrigel matrix (BD 356234) which was left to polymerize for 45 minutes at 37° C. HMECs were grown to 80% confluence, washed with DPBS (Invitrogen) and trypsinised using 2 ml TrypLE™ Express (1×) (Invitrogen). Cells were centrifuged following flask detachment at 1200 rpm for 4 minutes. The cell pellet was resuspended in 3 ml full media and a cell count was performed using a haemocytometer. 7.5×10^3 cells were pipetted into each matrigel coated well of the μ-slide angiogenesis plate and treated with either 0.1% DMSO or 1, 3.16 or 10 μM compound 4 or compound 18. The slide was kept at 37° C./5% CO2 during cell tube formation. After 16 hours, 50 μl of media was removed from each of the Ibidi wells and 25 μl of the media was run in each well of a Meso Scale Discovery (MD, USA) custom multiplex ELISA containing the following analytes: Ang-1, Ang-2, VEGF, bFGF, PAI-1, sICAM and sVCAM. The ELISA was run as per manufacturer's instructions.

sVCAM-1 = assay: Multiplex ELISA of HMEC media: sVCAM-1; type: cell-based, human; details: compound-treated HMECs, 16 hours
Procedure: as §1

human HT29-Luc2 cells = assay: Clonogenic assay of cell viability in HT29-Luc2; type: cell-based; details: 10 μM, 24-96 hours
Procedure: HT29-Luc2 CRC cells were maintained using McCoy's 5A (Gibco 36600-088) medium supplemented with 10% FBS (Gibco 10270-106) at 37° C./5% CO2. Cells were washed in DPBS and trypsinised using 2 ml TrypLE™ Express (1×) (Invitrogen). Cells were centrifuged following detachment at 1200 rpm for 4 minutes. The cell pellet was resuspended in full media and a cell count was performed using a haemocytometer. 1.5×10^3 cells were seeded per well of a 6 well plate and left to adhere for 24 hours. Cells were then treated with 10 μM of compound 4 or 18 for 24 hours. The drugs were then removed and cells were allowed to grow in fresh media for 10 days in total, clones were then fixed using 4% paraformaldehyde and stained by incubating with 0.5% crystal violet solution (Pro-Lab diagnostics PL.7000) at RT for 2 hours. Clones counting was performed using the ColCount™ system (Oxford Optronix).

[2] = tested on: human microvascular endothelial cells (HMECs); assay: In vitro tubule formation in human microvascular endothelial cells; type: cell-based; details: 1, 3.16 and 10 μM, 16 hours, HMEC on matrigel
Procedure: as §1, with “the cells were imaged by phase contrast microscopy using the Zeiss Axiovert 200 M microscope. Total tubule length” for “50 μl of media”, “quantified using Zeiss Axiovision image analysis software. Calcein AM stain (C3099 Invitrogen) was prepared at 2 μg/ml final concentration” for “removed from each of the Ibidi wells”, “incubated with HMEC cells” for “25 μl of the media was run in each well of a Meso Scale Discovery (MD, USA) custom multiplex ELISA containing the”, “tubule formation for 30 minutes at 37° C. […]” for “analytes: Ang-1, Ang-2, VEGF, bFGF, PAI-1, sICAM and sVCAM. The ELISA was run as per manufacturer's instructions.”

VEGF = assay: Multiplex ELISA of HMEC media: VEGF; type: cell-based, human; details: compound-treated HMECs, 16 hours
Procedure: as §1

sICAM-1 = assay: Multiplex ELISA of HMEC media: sICAM-1; type: cell-based, human; details: compound-treated HMECs, 16 hours
Procedure: as §1

Cl.Oc1ccccc1/C=C/c1cnccn1 [Compound 4, (E)-2-[2-(Pyrazin-2-yl)vinyl]phenol hydrochloride]
cell viability (MTT assay) [1]: does not affect cell viability | expression of Ang-2 (Ang-2; hydrochloride): significantly reduce; also recorded: reduce expression of Ang-2 and PAI-1 in human endothelial microvascular cells in a statistically significant manner | expression of sVCAM-1 (sVCAM-1): not significantly different to control-treated HMECs | cell viability in a clonogenic assay (human HT29-Luc2 cells): does not affect cell viability | tubule formation (total tubule length) ([2]; hydrochloride): significantly reduce tubule formation; also recorded: inhibit in vitro tubule formation in a statistically significant manner | expression of VEGF (VEGF): not significantly different to control-treated HMECs | expression of sICAM-1 (sICAM-1): not significantly different to control-treated HMECs

Oc1ccccc1C#Cc1cnccn1 [Compound 18, 2-[2-(Pyrazin-2-yl)ethynyl]phenol]
cell viability (MTT assay) [1]: does not affect cell viability | expression of Ang-2 (Ang-2): significantly reduce; also recorded: reduce expression of Ang-2 and PAI-1 in human endothelial microvascular cells in a statistically significant manner | expression of sVCAM-1 (sVCAM-1): not significantly different to control-treated HMECs | cell viability in a clonogenic assay (human HT29-Luc2 cells): does not affect cell viability | tubule formation (total tubule length) [2]: significantly reduce tubule formation; also recorded: inhibit in vitro tubule formation in a statistically significant manner | expression of VEGF (VEGF): not significantly different to control-treated HMECs | expression of sICAM-1 (sICAM-1): not significantly different to control-treated HMECs

Reference: patent publication US9975860B2, “Anti-angiogenic compounds” (UNIVERSITY COLLEGE DUBLIN—NATIONAL UNIVERSITY OF IRELAND, …, priority 2014, dated 2018)
